# Patent US8586600B2, “Heterocyclic compounds and uses thereof” (Celgene Avilomics Research, Inc., priority 2007, dated 2013)
# Where two headings read alike, the source gives them in different places.
# Tests used:
# [1] = target: T1, c-KIT (V654A) (Homo sapiens (Human), UniProt P10721, V654A); assay: c-Kit (V654A) Omnia assay for potency assessment (Method E); format: biochemical; conditions: [ATP]=220 μM, read-out: Mutant c-KIT (V654A) IC50 Apparent
# Protocol: (§1) Kinase reactions were started with the addition of 45 μL of the Y9 or Y12-Sox peptide substrate and monitored every 30-90 seconds for 60 minutes at λex360/λem485 in a Synergy^4 plate reader from BioTek (Winooski, Vt.).
# [2] = target: PDGFR-α (Homo sapiens (Human), UniProt P16234); assay: PDGFR inhibition assay Method B (Z'-LYTE biochemical assay); conditions: compound at 1 μM
# PDGFR-α, sequence (P16234 24-1089): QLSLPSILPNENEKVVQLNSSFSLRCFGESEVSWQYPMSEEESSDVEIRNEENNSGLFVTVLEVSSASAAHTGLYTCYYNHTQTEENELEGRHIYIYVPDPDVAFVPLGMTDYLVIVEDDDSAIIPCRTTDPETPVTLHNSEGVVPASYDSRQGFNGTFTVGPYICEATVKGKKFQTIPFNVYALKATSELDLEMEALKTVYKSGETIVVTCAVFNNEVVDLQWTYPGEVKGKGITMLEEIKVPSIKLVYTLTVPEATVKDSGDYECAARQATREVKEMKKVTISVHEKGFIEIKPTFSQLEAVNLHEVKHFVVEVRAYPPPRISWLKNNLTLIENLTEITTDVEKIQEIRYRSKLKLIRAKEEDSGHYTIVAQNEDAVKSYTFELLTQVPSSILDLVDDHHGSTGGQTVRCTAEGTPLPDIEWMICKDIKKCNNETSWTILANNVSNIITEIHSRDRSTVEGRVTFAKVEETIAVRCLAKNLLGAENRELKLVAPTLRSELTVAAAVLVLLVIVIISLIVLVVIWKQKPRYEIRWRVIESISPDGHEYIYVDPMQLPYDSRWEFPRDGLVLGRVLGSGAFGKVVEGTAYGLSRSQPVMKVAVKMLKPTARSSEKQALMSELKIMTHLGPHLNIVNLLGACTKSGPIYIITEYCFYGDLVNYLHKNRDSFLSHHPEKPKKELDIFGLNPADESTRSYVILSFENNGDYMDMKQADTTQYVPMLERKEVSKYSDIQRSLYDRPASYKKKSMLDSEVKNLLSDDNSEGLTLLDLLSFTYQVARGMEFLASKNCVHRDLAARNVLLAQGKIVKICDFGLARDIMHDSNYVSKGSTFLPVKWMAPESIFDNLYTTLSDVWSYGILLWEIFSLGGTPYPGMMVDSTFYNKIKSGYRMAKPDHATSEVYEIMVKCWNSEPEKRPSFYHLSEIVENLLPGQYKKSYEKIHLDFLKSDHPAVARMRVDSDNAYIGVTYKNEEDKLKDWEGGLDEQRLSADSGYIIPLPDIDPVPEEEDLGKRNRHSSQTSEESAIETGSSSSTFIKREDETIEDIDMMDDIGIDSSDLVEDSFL
# Excerpt: The Z'-LYTE™ biochemical assay employs a fluorescence-based, coupled-enzyme format and is based on the differential sensitivity of phosphorylated and non-phosphorylated peptides to proteolytic cleavage.
# [3] = target: T2, c-KIT kinase (Homo sapiens (Human), UniProt P10721); assay: cKit inhibition assay Method C (electrophoretic mobility shift); format: biochemical; conditions: read-out: c-KIT % Inhibition
# T2 sequence (P10721 26-976): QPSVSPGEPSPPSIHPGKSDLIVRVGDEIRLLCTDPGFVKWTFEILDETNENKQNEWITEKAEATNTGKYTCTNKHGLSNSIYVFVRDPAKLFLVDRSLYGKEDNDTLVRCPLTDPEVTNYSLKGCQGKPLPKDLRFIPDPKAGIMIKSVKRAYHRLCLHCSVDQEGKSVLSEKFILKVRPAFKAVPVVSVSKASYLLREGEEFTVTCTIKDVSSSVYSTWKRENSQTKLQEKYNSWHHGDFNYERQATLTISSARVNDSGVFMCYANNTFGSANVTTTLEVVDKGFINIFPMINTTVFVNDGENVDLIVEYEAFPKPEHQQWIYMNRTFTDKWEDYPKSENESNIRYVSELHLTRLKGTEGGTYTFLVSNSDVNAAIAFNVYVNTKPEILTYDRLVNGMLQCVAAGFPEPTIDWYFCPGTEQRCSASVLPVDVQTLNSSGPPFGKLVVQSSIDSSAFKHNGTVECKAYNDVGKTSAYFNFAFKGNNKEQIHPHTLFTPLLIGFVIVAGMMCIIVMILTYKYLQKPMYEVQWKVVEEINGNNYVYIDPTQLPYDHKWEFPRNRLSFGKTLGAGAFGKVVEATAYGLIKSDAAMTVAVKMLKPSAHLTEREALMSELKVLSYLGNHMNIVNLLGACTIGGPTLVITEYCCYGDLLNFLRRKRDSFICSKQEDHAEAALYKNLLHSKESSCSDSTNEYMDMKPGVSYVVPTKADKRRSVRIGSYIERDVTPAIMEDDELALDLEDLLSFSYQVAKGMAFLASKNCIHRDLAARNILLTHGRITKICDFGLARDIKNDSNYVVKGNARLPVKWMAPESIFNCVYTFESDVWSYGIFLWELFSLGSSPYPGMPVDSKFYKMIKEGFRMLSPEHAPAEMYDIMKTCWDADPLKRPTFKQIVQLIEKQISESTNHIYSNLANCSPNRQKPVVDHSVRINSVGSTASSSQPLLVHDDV
# Protocol: The reaction was started by adding the ATP and incubating for 1 hour at room temperature. […] Phosphorylated and unphosphorylated substrate was separated by charge using electrophoretic mobility shift. Product formed was compared to control wells to determine inhibition or enhancement of enzyme activity.
# [4] = target: T1, c-KIT (V654A); assay: c-Kit (V654A) Omnia assay with pre-activated enzyme (Method D); format: biochemical; conditions: [ATP]=100 μM, read-out: Mutant c-KIT (V654A) IC50
# Protocol: as §1, with “10× enzyme/ATP stocks were pre-incubated for 30 min at room temperature to pre-activate each enzyme prior to compound exposure. […] Kinase” for “Kinase”
# [5] = target: c-KIT (T670I) (Homo sapiens (Human), UniProt P10721, T670I); assay: c-Kit (T670I) Omnia assay for potency assessment (Method E); format: biochemical; conditions: [ATP]=220 μM, read-out: Mutant c-KIT (T670I) IC50 Apparent
# c-KIT (T670I), sequence (P10721 26-976 T670I): as the sequence (P10721 26-976) above, with T645I counted along it
# Protocol: as §1
# [6] = target: T2, c-KIT kinase; assay: c-KIT mass spectral analysis of tryptic digest (MALDI-TOF); format: binding; conditions: 3 hours incubation at 10× excess of compound
# Protocol: Iodoacetamide was used as the alkylating agent after compound incubation. […] For tryptic digests a 5 μl aliquot (14 pmols) was diluted with 10 ul of 0.1% TFA prior to micro C18 Zip Tipping directly onto the MALDI target using alpha cyano-4-hydroxy cinnamic acid as the matrix (5 mg/ml in 0.1% TFA:acetonitrile 50:50).
# The tryptic digest was analyzed by mass spectrometer (MALDI-TOF).
# T1 sequence (P10721 26-976 V654A): as the sequence (P10721 26-976) above, with V629A counted along it
compound,measurement,setting,value
C=CC(=O)Nc1ccc(C(=O)Nc2ccc(C)c(Nc3nccc(-c4cccnc4)n3)c2)cc1C(F)(F)F [II-2],IC50,[1],0.083 µM
C/C=C/C(=O)Nc1ccc(C(=O)Nc2ccc(C)c(Nc3nccc(-c4cccnc4)n3)c2)cc1 [II-4],inhibition at 1 µM,[2],28%
Cc1ccc(NC(=O)c2ccc(NC(=O)/C=C/CN(C)C)cc2)cc1Nc1nccc(-c2cccnc2)n1 [II-5],inhibition at 1 µM,"[3]; compound at 1 μM, 300 μM ATP",66%
"C=CC(=O)NCc1ccc(C(=O)Nc2ccc(C)c(Nc3nccc(-c4cccnc4)n3)c2)cc1 [II-6, 4-(Acryloylaminomethyl)-N-[4-methyl-3-(4-pyridin-3-ylpyrimidin-2-ylamino)phenyl]benzamide]",inhibition at 1 µM,"[3]; compound at 1 μM, 300 μM ATP",91%
"Cc1ccc(NC(=O)c2ccc(CN3C(=O)C=CC3=O)cc2)cc1Nc1nccc(-c2cccnc2)n1 [II-8, 4-(2,5-Dioxo-2,5-dihydropyrrol-1-ylmethyl)-N-[4-methyl-3-(4-pyridin-3-yl-pyrimidin-2-ylamino)-phenyl]benzamide]",inhibition at 1 µM,"[3]; compound at 1 μM, 300 μM ATP",78%
Cc1ccc(NC(=O)c2ccc(NC(=O)COC(=O)c3c(Cl)cccc3Cl)cc2)cc1Nc1nccc(-c2cccnc2)n1 [II-26],inhibition at 1 µM,"[3]; compound at 1 μM, 300 μM ATP",94%
Cc1ccc(NC(=O)c2ccc(NS(=O)(=O)c3cnccc3Cl)cc2)cc1Nc1nccc(-c2cccnc2)n1 [II-40],IC50,[4],10 µM
Cc1ccc(NC(=O)c2ccc(NS(=O)(=O)c3ccc(Cl)nc3)cc2)cc1Nc1nccc(-c2cccnc2)n1 [II-41],IC50,[1],0.173 µM
"C=CC(=O)Nc1ccc2cc(C(=O)Nc3ccc(C)c(Nc4nccc(-c5cccnc5)n4)c3)ccc2c1 [II-44, 6-Acryloylaminonaphthalene-2-carboxylic acid[4-methyl-3-(4-pyridin-3-ylpyrimidin-2-ylamino)phenyl]amide]",inhibition at 1 µM,[3],95%
Cc1ccc(NC(=O)c2ccc(NC(=O)CCl)cc2)cc1Nc1nccc(-c2cccnc2)n1 [II-53],IC50,[4],0.937 µM
same,IC50,[1],0.26 µM
Cc1ccc(NC(=O)c2ccc(NC(=O)C(C)Cl)cc2)cc1Nc1nccc(-c2cccnc2)n1 (centres unmarked) [II-54],IC50,[4],10 µM
Cc1ccc(NC(=O)c2ccc(NC(=O)/C=C/CN(C)C)c(C(F)(F)F)c2)cc1Nc1nccc(-c2cccnc2)n1 [II-55],IC50,[4],9.15 µM
Cc1ccc(C(=O)Nc2ccc(NC(=O)/C=C/CN(C)C)c(C(F)(F)F)c2)cc1Nc1nccc(-c2cccnc2)n1 [III-6],IC50,[4],3.99 µM
same,IC50,[1],0.216 µM
same,IC50,[5],1.57 µM
Cc1ccc(C(=O)Nc2ccc(NC(=O)CCl)c(C(F)(F)F)c2)cc1Nc1nccc(-c2cccnc2)n1 [III-14],covalent modification of c-KIT (mass spectral analysis),[6],covalently bound to c-KIT protein at two target cystein residues: Cys808 (minor) and Cys788 (major)
